Measurements taken from patent publication US10335409B2 (priority 2012, dated 2019).
Read-outs that look alike come from different tables or passages of the source.

Legend:
[1] = test system: genotype 1b (Con1) stable HCV replicon in Huh-7-derived cells; assay: Stable subgenomic HCV replicon EC50, genotype 1b (Renilla luciferase); format: cell-based, hepatitis C virus; details: stable replicon genotype 1b, 72 h, read-out: EC50 1B RLUC
Procedure, shortened: (§1)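 Compounds, three-fold diluted, were applied to Huh-7-derived cells harbouring luciferase replicons (genotype 1a H77, 1b Con1, 2a JFH-1, 4a ED43, with strain-specific adaptive mutations). Seventy-two hours later, intracellular replication was gauged by Renilla luciferase activity and EC50 derived by regression.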

[2] = test system: genotype 1a (H77) wild type transient HCV replicon in Huh-7-derived cells; assay: Transient-transfected HCV replicon EC50, genotype 1a wild type; format: cell-based, hepatitis C virus; details: transient-transfected replicon genotype 1a wild type, 72 h, read-out: EC50 1A WT
[3] = test system: genotype 1b (Con1) wild type transient HCV replicon in Huh-7-derived cells; assay: Transient-transfected HCV replicon EC50, genotype 1b wild type; format: cell-based, hepatitis C virus; details: transient-transfected replicon genotype 1b wild type, 72 h, read-out: EC50 1B WT
[4] = test system: genotype 1a NS3/4a protease inhibitor resistant variant R155K transient HCV replicon in Huh-7-derived cells; assay: Transient-transfected HCV replicon EC50, genotype 1a R155K; format: cell-based, hepatitis C virus; details: 72 h
[5] = test system: genotype 4a (ED43) stable HCV replicon in Huh-7-derived cells; assay: Stable subgenomic HCV replicon EC50, genotype 4a (Renilla luciferase); format: cell-based, hepatitis C virus; details: 72 h, read-out: EC50 4A RLUC
Procedure, shortened: as §1

[6] = test system: genotype 1b NS3/4a protease inhibitor resistant variant D168A transient HCV replicon in Huh-7-derived cells; assay: Transient-transfected HCV replicon EC50, genotype 1b D168A; format: cell-based, hepatitis C virus; details: 72 h
[7] = target: HCV NS3 protease domain genotype 3a (Hepatitis C virus genotype 3a, UniProt Q81258); assay: Ki determination, NS3 protease genotype 3a (fluorogenic depsipeptide substrate); format: biochemical; details: 200 pM enzyme, NS4A peptide
From the text: Purified NS3 protease domain (amino acids 1-181) of the genotype 1b and 3a virus were generated as above. The internally quenched fluorogenic depsipeptide substrate Ac-DED(Edans)-EEAbuΨ[COO]ASK(Dabcyl)-NH2 and a synthetic peptide containing the hydrophobic core residues of the NS4A protein cofactor ([…]; NS4A peptide) were obtained from Anaspec, Inc. (San Jose, Calif.). Other chemicals and biochemicals were of reagent grade or better and were purchased from standard suppliers.
Reactions were run at room temperature in buffer consisting of 50 mM HEPES, 40% glycerol, 0.05% Triton X-100, 10 mM DTT, and 10% DMSO. The final assay solutions contained 50 pM NS3 genotype 1 b protease or 200 pM genotype 3a protease, 20 μM NS4A peptide, and 4 μM substrate (genotype 1b) or 2 μM substrate (genotype 3a). Inhibitor concentrations varied from 100 nM to 5 pM in 3-fold dilutions, and no-inhibitor controls were included.
Compound dilutions were made in DMSO at 20× final concentration. Reaction mixtures were prepared in 96-well assay plates. A solution of enzyme and NS4A peptide in assay buffer (25 μL volume with both reagents at 4× final concentration) was mixed with 45 μL assay buffer and 5 μL of either inhibitor or DMSO, and pre-incubated at room temperature for 1 hour. The reaction was started by addition of 25 μL substrate solution at 4× final concentration. Plates were mixed vigorously for 5-10 seconds and reactions were allowed to proceed for 90 minutes, fluorescence was measured every 30 s between 90 and 120 minutes reaction time using a Tecan InfiniTe M1000 or PerkinElmer Envision multimode plate reader with an excitation wavelength of 340 nm and an emission wavelength of 490 nm.
Rates were calculated from the progress curves at steady state, in the time frame of 90-120 minutes after addition of substrate. To determine the Ki, rates were plotted as a function of inhibitor concentration, and the data were fit with equation 1 (Morrison, J. F., Biochimica et Biophysica Acta 1969, 185, 269-286) to calculate Ki^app using GraphPad Prism 5. Active fraction of enzyme was determined by active site titration with known potent inhibitors. Ki was calculated from Ki^app/(1+[[S]/Km]).

[8] = test system: genotype 3a (S52) stable HCV replicon in Huh-7-derived cells; assay: Stable subgenomic HCV replicon EC50, genotype 3a (Renilla luciferase); format: cell-based, hepatitis C virus; details: 72 h, read-out: EC50 3A RLUC
[9] = test system: genotype 2a (JFH-1) stable HCV replicon in Huh-7-derived cells; assay: Stable subgenomic HCV replicon EC50, genotype 2a (Renilla luciferase); format: cell-based, hepatitis C virus; details: stable replicon genotype 2a, 72 h, read-out: EC50 2A RLUC
Procedure, shortened: as §1

[10] = test system: genotype 1a (H77) stable HCV replicon in Huh-7-derived cells; assay: Stable subgenomic HCV replicon EC50, genotype 1a (Renilla luciferase); format: cell-based, hepatitis C virus; details: stable replicon genotype 1a, 72 h, read-out: EC50 1A RLUC
Procedure, shortened: as §1

[11] = transient-transfected replicon genotype 1a R155K resistant variant, read-out: EC50 1A R155K
[12] = stable replicon genotype 4a, Renilla luciferase
[13] = transient-transfected replicon genotype 1b D168A resistant variant, read-out: EC50 1B D168A
[14] = stable replicon genotype 3a, Renilla luciferase

Chain of HCV NS3 protease domain genotype 3a (Q81258 whole entry, looked up, the tested form may be a part): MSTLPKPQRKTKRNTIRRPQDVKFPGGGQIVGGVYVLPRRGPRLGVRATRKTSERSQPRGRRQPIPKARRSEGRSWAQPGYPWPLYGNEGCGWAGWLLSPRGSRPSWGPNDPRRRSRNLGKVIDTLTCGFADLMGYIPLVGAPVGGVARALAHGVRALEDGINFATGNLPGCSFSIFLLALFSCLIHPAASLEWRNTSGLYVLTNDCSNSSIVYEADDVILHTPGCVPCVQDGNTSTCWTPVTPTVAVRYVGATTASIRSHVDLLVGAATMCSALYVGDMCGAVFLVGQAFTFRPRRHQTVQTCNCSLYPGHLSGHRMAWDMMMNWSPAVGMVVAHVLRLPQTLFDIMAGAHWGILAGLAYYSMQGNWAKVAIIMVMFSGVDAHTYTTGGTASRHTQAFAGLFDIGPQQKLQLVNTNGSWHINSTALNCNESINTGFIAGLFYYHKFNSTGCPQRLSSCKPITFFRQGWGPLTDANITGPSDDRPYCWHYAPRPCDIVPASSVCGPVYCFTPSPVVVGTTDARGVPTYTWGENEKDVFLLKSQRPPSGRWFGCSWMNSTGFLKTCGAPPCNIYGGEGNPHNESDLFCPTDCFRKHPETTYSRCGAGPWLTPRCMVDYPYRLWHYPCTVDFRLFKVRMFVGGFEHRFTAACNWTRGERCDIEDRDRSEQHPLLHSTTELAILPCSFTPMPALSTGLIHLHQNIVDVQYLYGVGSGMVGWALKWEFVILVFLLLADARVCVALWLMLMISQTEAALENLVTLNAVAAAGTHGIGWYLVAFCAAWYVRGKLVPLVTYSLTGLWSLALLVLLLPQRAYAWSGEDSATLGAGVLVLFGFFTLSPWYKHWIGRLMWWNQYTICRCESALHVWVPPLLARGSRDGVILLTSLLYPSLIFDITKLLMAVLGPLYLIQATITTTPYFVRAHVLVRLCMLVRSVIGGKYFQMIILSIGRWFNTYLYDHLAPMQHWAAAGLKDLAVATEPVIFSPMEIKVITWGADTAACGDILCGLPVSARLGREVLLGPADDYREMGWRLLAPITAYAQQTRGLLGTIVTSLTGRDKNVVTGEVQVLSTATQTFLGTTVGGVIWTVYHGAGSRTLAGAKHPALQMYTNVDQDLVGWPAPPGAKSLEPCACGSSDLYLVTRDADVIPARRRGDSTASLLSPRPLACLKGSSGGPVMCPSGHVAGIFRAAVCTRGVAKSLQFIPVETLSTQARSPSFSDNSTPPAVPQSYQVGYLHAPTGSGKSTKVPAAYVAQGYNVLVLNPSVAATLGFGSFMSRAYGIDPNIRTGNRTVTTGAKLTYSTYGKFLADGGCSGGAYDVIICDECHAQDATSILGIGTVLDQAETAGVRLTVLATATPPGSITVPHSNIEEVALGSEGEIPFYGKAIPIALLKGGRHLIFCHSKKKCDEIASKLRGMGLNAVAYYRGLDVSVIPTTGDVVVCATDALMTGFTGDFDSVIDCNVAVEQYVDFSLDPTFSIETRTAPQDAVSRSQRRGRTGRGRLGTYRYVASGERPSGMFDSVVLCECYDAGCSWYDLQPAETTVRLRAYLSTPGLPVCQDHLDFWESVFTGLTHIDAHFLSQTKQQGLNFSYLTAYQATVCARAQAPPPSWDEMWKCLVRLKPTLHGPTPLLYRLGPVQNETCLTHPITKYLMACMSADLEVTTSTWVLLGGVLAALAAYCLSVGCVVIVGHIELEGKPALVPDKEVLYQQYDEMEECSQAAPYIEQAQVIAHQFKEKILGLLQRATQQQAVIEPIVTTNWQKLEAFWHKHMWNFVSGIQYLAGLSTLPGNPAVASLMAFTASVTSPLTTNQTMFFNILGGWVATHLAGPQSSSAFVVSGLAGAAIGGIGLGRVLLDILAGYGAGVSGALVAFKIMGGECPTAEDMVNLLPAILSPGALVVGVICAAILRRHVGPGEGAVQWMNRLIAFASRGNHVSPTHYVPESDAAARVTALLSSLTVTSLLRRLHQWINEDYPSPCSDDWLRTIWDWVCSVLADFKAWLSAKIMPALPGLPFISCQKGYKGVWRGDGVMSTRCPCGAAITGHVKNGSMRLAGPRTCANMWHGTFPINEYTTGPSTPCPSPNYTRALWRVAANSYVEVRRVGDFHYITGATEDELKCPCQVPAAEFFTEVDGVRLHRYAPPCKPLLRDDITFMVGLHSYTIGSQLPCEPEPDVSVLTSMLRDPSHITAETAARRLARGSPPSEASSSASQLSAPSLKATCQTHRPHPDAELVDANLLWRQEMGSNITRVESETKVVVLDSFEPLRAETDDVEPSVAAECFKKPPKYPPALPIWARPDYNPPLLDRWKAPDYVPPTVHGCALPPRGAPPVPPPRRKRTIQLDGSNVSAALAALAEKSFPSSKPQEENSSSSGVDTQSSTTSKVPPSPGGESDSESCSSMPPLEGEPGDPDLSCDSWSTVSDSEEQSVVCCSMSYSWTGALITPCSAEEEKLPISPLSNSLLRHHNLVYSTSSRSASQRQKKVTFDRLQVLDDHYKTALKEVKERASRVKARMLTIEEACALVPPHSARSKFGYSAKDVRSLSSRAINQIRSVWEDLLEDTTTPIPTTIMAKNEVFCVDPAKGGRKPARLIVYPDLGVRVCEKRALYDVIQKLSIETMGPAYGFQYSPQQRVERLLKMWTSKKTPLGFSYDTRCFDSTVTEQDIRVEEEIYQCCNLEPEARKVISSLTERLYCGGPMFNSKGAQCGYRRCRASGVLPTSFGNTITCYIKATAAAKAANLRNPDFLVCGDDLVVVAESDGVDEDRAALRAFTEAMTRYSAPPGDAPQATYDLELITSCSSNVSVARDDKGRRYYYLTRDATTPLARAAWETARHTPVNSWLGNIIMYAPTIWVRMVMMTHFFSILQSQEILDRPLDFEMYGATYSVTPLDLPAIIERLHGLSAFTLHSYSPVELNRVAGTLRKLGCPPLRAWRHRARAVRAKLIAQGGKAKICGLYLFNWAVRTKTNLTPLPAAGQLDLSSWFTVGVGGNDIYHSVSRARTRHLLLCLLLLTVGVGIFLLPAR

Row | SMILES | EC50 [1] | EC50 [2] | EC50 [3] | EC50 [4, 11] | EC50 [5, 12] | EC50 [6, 13] | Ki [7] | EC50 [8, 14] | EC50 [9] | EC50 [10] | EC50 ([1]; Hepatitis C virus) | EC50 ([5]; Hepatitis C virus) | EC50 ([8]; Hepatitis C virus) | EC50 ([9]; Hepatitis C virus) | EC50 ([10]; Hepatitis C virus) | other results
1 | CC[C@@H]1[C@@H]2CN(C(=O)[C@H](C(C)(C)C)NC(=O)O[C@]3(C(F)(F)F)CCCC3CCCCCc3nc4ccc(OC)cc4nc3O2)[C@@H]1C(=O)N[C@]1(C(=O)NS(=O)(=O)C2(C)CC2)C[C@H]1C(F)F (stereo partly drawn) [Example 9, (7S,10S,11S,12R)-7-tert-butyl-N-[(1R,2R)-2-(difluoromethyl)-1-{[(1-methylcyclopropyl)sulfonyl]carbamoyl}cyclopropyl]-11-ethyl-16-methoxy-5,8-dioxo-3aR-(trifluoromethyl)-1,2,3,3a,5,6,7,8,11,12,20,21,22,23,24,24a-hexadecahydro-10H-9,12-methanocyclopenta[18,19][1,10,3,6]dioxadiazacyclononadecino[11,12-b]quinoxaline-10-carboxamide] | 7.9 nM | 12 nM | 2.5 nM | 208 nM | 11 nM | 360 nM | 0.59 nM | 1270 nM | 23 nM | 17 nM | – | – | – | – | – | –
2 | CC[C@@H]1[C@@H]2CN(C(=O)[C@H](C(C)(C)C)NC(=O)O[C@@]3(C(F)(F)F)CCCC3CCCCCc3nc4ccc(OC)cc4nc3O2)[C@@H]1C(=O)N[C@]1(C(=O)NS(=O)(=O)C2(C)CC2)C[C@H]1C(F)F (stereo partly drawn) [Example 10, (7S,10S,11S,12R)-7-tert-butyl-N-[(1R,2R)-2-(difluoromethyl)-1-{[(1-methylcyclopropyl)sulfonyl]carbamoyl}cyclopropyl]-11-ethyl-16-methoxy-5,8-dioxo-3aS-(trifluoromethyl)-1,2,3,3a,5,6,7,8,11,12,20,21,22,23,24,24a-hexadecahydro-10H-9,12-methanocyclopenta[18,19][1,10,3,6]dioxadiazacyclononadecino[11,12-b]quinoxaline-10-carboxamide] | 22 nM | 37 nM | 10 nM | 131 nM | 26 nM | 493 nM | 0.52 nM | 978 nM | 49 nM | 30 nM | – | – | – | – | – | –
3 | CC[C@@H]1[C@@H]2CN(C(=O)[C@H](C(C)(C)C)NC(=O)O[C@]3(C(F)(F)F)CCC[C@H]3CCCCCc3nc4ccc(OC)cc4nc3O2)[C@@H]1C(=O)N[C@]1(C(=O)NS(=O)(=O)C2CC2)C[C@H]1C(F)F [Example 11, (7S,10S,11 S,12R)-7-tert-butyl-N-[(1R,2R)-1-[(cyclopropylsulfonyl)carbamoyl]-2-(difluoromethyl)cyclopropyl]-1-ethyl-16-methoxy-5,8-dioxo-3aR-(trifluoromethyl)-1,2,3,3a,5,6,7,8,11,12,20,21,22,23,24,24a-hexadecahydro-1 OH-9,12-methanocyclopenta[18,19][1,10,3,6]dioxadiazacyclononadecino[11,12-b]quinoxaline-10-carboxamide] | 17 nM | 20 nM | 9.4 nM | 159 nM | 19 nM | 605 nM | 0.88 nM | 1160 nM | 34 nM | 28 nM | – | – | – | – | – | –
4 | CC[C@@H]1[C@@H]2CN(C(=O)[C@H](C(C)(C)C)NC(=O)O[C@@]3(C(F)(F)F)CCC[C@H]3CCCCCc3nc4ccc(OC)cc4nc3O2)[C@@H]1C(=O)N[C@]1(C(=O)NS(=O)(=O)C2CC2)C[C@H]1C(F)F [Example 12, (7S,10S,11S,12R)-7-tert-butyl-N-[(1R,2R)-1-[(cyclopropylsulfonyl)carbamoyl]-2-(difluoromethyl)cyclopropyl]-11-ethyl-16-methoxy-5,8-dioxo-3aS-(trifluoromethyl)-1,2,3,3a,5,6,7,8,11,12,20,21,22,23,24,24a-hexadecahydro-10H-9,12-methanocyclopenta[18,19][1,10,3,6]dioxadiazacyclononadecino[11,12-b]quinoxaline-10-carboxamide] | 18 nM | 14 nM | 5.7 nM | 283 nM | 21 nM | 640 nM | 1.2 nM | 2010 nM | 25 nM | 34 nM | – | – | – | – | – | –
5 | COc1ccc2nc3c(nc2c1)O[C@H]1CN(C(=O)[C@H](C(C)(C)C)NC(=O)O[C@@H]2CCC[C@H]2CCCCC3)[C@H](C(=O)N[C@]2(C(=O)NS(=O)(=O)C3(C)CC3)C[C@H]2C(F)F)[C@@H]1C [Example 27, (3aR,7S10S,1S,12R,24aR)-7-tert-butyl-N-[(1R,2R)-2-(difluoromethyl)-1-{[(1-methylcyclopropyl)sulfonyl]carbamoyl}cyclopropyl]-16-methoxy-11-methyl-5,8-dioxo-1,2,3,3a,5,6,7,8,11,12,20,21,22,23,24,24a-hexadecahydro-10H-9,12-methanocyclopenta[18,19][1,10,3,6]dioxadiazacyclononadecino[11,12-b]quinoxaline-10-carboxamide] | – | – | – | – | – | – | 0.08 nM | – | – | – | 5.2 nM | 6.1 nM | 266 nM | 6.7 nM | 6.6 nM | EC50 ([2]; Hepatitis C virus): 6 nM; EC50 ([3]; Hepatitis C virus): 4.3 nM; EC50 ([4]; Hepatitis C virus, read-out: EC50 1A R155K, transient-transfected replicon genotype 1a R155K resistant variant, 72 h): 20 nM; EC50 ([6]; Hepatitis C virus, read-out: EC50 1B D168A, transient-transfected replicon genotype 1b D168A resistant variant, 72 h): 70 nM
6 | COc1ccc2nc3c(nc2c1)O[C@H]1CN(C(=O)[C@H](C(C)(C)C)NC(=O)O[C@@H]2C[C@H]2CCCCC3)[C@H](C(=O)N[C@]2(C(=O)NS(=O)(=O)C3(C)CC3)C[C@H]2C(F)F)[C@@H]1Cc1ccccc1 [Example 32] | – | – | – | – | – | – | 0.87 nM | – | – | – | 30 nM | 30 nM | 2310 nM | 35 nM | 59 nM | EC50 ([2]; Hepatitis C virus, GETYPE1A): 44 nM; EC50 ([3]; Hepatitis C virus, GETYPE1B): 14 nM; EC50 ([4]; Hepatitis C virus, GETYPE1A, read-out: EC50 1A R155K, transient-transfected replicon genotype 1a R155K resistant variant, 72 h): 547 nM; EC50 ([6]; Hepatitis C virus, GETYPE1B, read-out: EC50 1B D168A, transient-transfected replicon genotype 1b D168A resistant variant, 72 h): 653 nM
